Reference: patent US20050289668A1, “Plants with increased levels of one or more amino acids” (priority 2003, published 2005)
Residue numbers refer to the chain shown, from its start.

How the values were obtained:
[1] = target: T1, E. coli threonine deaminase (ilvA) variant L481E, SEQ ID NO: 7 (Escherichia coli, UniProt P04968, A120R/A140R/G195C/G334V/L481E/V121L); assay: Threonine deaminase steady state kinetics, L481E; type: biochemical
T1 construct: made in house; host or cells: E. coli (pSE380, crude extract)
T1 sequence (P04968 whole entry A120R/V121L/A140R/G195C/G334V/L481E): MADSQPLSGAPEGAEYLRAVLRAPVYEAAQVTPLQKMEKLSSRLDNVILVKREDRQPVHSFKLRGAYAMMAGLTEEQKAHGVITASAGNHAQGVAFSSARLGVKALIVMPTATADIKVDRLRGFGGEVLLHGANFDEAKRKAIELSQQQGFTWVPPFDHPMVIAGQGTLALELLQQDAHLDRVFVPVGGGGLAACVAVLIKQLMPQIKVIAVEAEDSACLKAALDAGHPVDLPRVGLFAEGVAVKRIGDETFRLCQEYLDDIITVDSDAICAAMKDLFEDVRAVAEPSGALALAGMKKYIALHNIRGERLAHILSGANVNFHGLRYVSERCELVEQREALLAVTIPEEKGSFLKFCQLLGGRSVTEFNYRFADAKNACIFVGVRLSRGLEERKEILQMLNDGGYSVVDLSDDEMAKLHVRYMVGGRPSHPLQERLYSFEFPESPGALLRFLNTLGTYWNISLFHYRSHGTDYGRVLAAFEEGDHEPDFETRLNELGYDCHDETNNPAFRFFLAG
Description: (§1) Before conducting further transformation experiments using the isolated ilvA alleles in transgenic plants, each allele was over-expressed in E. coli to determine its kinetic parameters. Kinetics data on threonine deaminases containing various mutations, and a comparison to data available for threonine deaminases from Arabidopsis, are provided in Table 4. The E. coli ilvA481 variants were subcloned into pSE380 (Invitrogen, Carlsbad, Calif.) and expression was induced with 0.2 mM IPTG at 37° C. for 3 hours. Expression of the E. coli alleles was high and fairly consistent as visualized by SDS-PAGE.
(§2) The effects of amino acid substitutions at Leu481 in ilvA were assessed by steady state kinetic analysis in the presence and absence of L-isoleucine. Threonine deaminase polypeptides for use in in vitro kinetics studies were extracted from E. coli cells in assay buffer containing 50 mM potassium phosphate (pH7.5), 1 mM dithiothreitol (DTT), and 0.5 mM ethylenediamine-tetraacetate. A continuous assay method was employed to monitor the formation of α-ketobutyrate directly at 230 nm (ε230 (pH7.5)=540 M^−1cm^−1 whereas threonine absorption was negligible (˜1%)). […] The kinetic parameters were determined by fitting the data points to the equations using GraFit 4.0 software (Erithacus Software, Surrey, UK). […]

[2] = target: Arabidopsis threonine deaminase, mutant OMR1 (polynucleotide SEQ ID NO: 22); details: mutant Arabidopsis (OMR1) TD, comparison data, cited from earlier work
[3] = target: T2, E. coli threonine deaminase (ilvA) variant L481Q, SEQ ID NO: 9 (Escherichia coli, UniProt P04968, A120R/A140R/G195C/G334V/L481Q/V121L); assay: Threonine deaminase steady state kinetics, L481Q; type: biochemical
T2 construct: made in house; host or cells: E. coli (pSE380, crude extract)
T2 sequence (P04968 1-514 A120R/V121L/A140R/G195C/G334V/L481Q): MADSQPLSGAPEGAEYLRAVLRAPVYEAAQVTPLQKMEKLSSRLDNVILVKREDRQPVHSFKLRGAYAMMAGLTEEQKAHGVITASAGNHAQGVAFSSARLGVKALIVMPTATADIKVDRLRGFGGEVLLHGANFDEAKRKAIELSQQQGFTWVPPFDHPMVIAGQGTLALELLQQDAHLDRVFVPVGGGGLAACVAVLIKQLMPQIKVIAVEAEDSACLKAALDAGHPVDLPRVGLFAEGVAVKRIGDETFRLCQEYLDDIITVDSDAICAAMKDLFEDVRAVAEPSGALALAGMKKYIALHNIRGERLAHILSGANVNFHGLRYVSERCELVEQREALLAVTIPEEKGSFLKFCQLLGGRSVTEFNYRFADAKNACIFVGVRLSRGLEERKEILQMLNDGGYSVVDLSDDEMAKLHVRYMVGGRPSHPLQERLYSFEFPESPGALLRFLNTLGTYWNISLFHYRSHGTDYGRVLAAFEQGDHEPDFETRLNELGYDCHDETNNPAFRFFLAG
Description: as §1
(§3) The effects of amino acid substitutions at Leu481 in ilvA were assessed by steady state kinetic analysis in the presence and absence of L-isoleucine. Threonine deaminase polypeptides for use in in vitro kinetics studies were extracted from E. coli cells in assay buffer containing 50 mM potassium phosphate (pH7.5), 1 mM dithiothreitol (DTT), and 0.5 mM ethylenediamine-tetraacetate. A continuous assay method was employed to monitor the formation of α-ketobutyrate directly at 230 nm (ε230 (pH7.5)=540 M^−1cm^−1 whereas threonine absorption was negligible (˜1%)). The assay was initiated by adding 20 μl of crude extract diluted 1:20 v/v to the assay vessel containing L-threonine (between 2.5 mM and 50 mM) in a final volume of 1 mL. For L-isoleucine inhibition, L-isoleucine was added between 0 mM and 20 mM. The kinetic parameters were determined by fitting the data points to the equations using GraFit 4.0 software (Erithacus Software, Surrey, UK). For comparison, the kcat values of L481 alleles were normalized to the kcat value for the wild type IlvA enzyme. Enzymes represented in FIG. 7 are: wild type E. coli threonine deaminase (circles), L481Y TD enzyme (diamonds), L481F TD enzyme (triangles), and the L481T TD enzyme (squares). Table 4 also summarizes the kinetic parameters of the variant threonine deaminase enzymes produced by the various E. coli ilvA alleles.

[4] = target: T3, E. coli threonine deaminase (ilvA) variant L481F (ilvA466), SEQ ID NO: 4 (Escherichia coli, UniProt P04968, A120R/A140R/G195C/G334V/L481F/V121L); assay: biochemical; type: biochemical
T3 construct: made in house; host or cells: E. coli (pSE380, crude extract)
T3 sequence (P04968 whole entry A120R/V121L/A140R/G195C/G334V/L481F): as the sequence (P04968 whole entry A120R/V121L/A140R/G195C/G334V/L481E) above, with E481F counted along it
Description: as §1, §2

[5] = target: T4, E. coli threonine deaminase (ilvA) variant L481I, SEQ ID NO: 10 (Escherichia coli, UniProt P04968, A120R/A140R/G195C/G334V/L481I/V121L); assay: Threonine deaminase steady state kinetics, L481I; type: biochemical
T4 construct: made in house; host or cells: E. coli (pSE380, crude extract)
T4 sequence (P04968 1-514 A120R/V121L/A140R/G195C/G334V/L481I): T2 sequence (P04968 1-514 A120R/V121L/A140R/G195C/G334V/L481Q) with Q481I
Description: as §1, §3

[6] = target: T5, E. coli threonine deaminase (ilvA) variant L481P, SEQ ID NO: 6 (Escherichia coli, UniProt P04968, A120R/A140R/G195C/G334V/L481P/V121L); assay: Threonine deaminase steady state kinetics, L481P; type: biochemical
T5 construct: made in house; host or cells: E. coli (pSE380, crude extract)
T5 sequence (P04968 whole entry A120R/V121L/A140R/G195C/G334V/L481P): as the sequence (P04968 whole entry A120R/V121L/A140R/G195C/G334V/L481E) above, with E481P counted along it
Description: as §1, §2

[7] = target: T6, E. coli threonine deaminase (ilvA) variant L481T, SEQ ID NO: 8 (Escherichia coli, UniProt P04968, A120R/A140R/G195C/G334V/L481T/V121L); assay: Threonine deaminase steady state kinetics, L481T; type: biochemical
T6 construct: made in house; host or cells: E. coli (pSE380, crude extract)
T6 sequence (P04968 whole entry A120R/V121L/A140R/G195C/G334V/L481T): as the sequence (P04968 whole entry A120R/V121L/A140R/G195C/G334V/L481E) above, with E481T counted along it
Description: as §1, §2

[8] = target: Arabidopsis threonine deaminase, wild type; details: wild type Arabidopsis TD, comparison data, cited from earlier work

Question: What does the source list for `CC[C@H](C)[C@H](N)C(=O)O` [L-isoleucine]?
Answer: IC50 [1]: 445 µM; IC50 [2]: 500 µM; IC50 [3]: 188 µM; IC50 [4]: 800 µM; IC50 [5]: 134 µM; IC50 [6]: 650 µM; IC50 [7]: 449 µM; IC50 [8]: 10 µM

Question: With `C[C@@H](O)[C@H](N)C(=O)O` [L-threonine] as the compound, how does the Km ([1]; read-out: Km^Thr, L481E, pMON25860, pH 7.5, L-threonine 2.5-50 mM) read?
Answer: Its Km is 3.9 mM.

Question: What about the Km ([2]; read-out: Km^Thr) of the same compound?
Answer: The Km was 3.6 mM.

Question: What about the “Hill coefficient (n), substrate binding” value ([3]; L481Q, pMON25865, positive cooperativity) of the same compound?
Answer: The value was 1.6.

Question: What about the Km ([3]; read-out: Km^Thr, L481Q, pMON25865, pH 7.5, L-threonine 2.5-50 mM) of the same compound?
Answer: The Km was 8.8 mM.

Question: And the Km ([4]; read-out: Km^Thr, L481F, pMON25857, pH 7.5, L-threonine 2.5-50 mM)?
Answer: The Km was 4 mM.

Question: What about the “Hill coefficient (n), substrate binding” value ([5]; L481I, pMON25861, positive cooperativity) of the same compound?
Answer: Its value is 1.6.

Question: And the Km ([5]; read-out: Km^Thr, L481I, pMON25861, pH 7.5, L-threonine 2.5-50 mM)?
Answer: Its Km is 7.6 mM.

Question: And the Km ([6]; read-out: Km^Thr, L481P, pMON25864, pH 7.5, L-threonine 2.5-50 mM)?
Answer: Its Km is 8.8 mM.

Question: And the Km ([7]; read-out: Km^Thr, L481T, pMON25866, pH 7.5, L-threonine 2.5-50 mM)?
Answer: Its Km is 3.4 mM.

Question: And the Km ([8]; read-out: Km^Thr)?
Answer: Its Km is 2.8 mM.
